The source of these data is US12258354B2, “AhR modulators” (IDEAYA BIOSCIENCES, INC., priority 2018, dated 2025).

This experiment concerns the target T1, hAhR (Homo sapiens, UniProt P35869).
T1 construct: Stably integrated DRE-luciferase cell lines were generated by transducing the both cell lines with Cignal XRE luciferase reporter; endogenous in cells; host or cells: HEPG2 DRE-Luc cells (only the XRE luciferase reporter was transduced)
T1 sequence (P35869 11-848): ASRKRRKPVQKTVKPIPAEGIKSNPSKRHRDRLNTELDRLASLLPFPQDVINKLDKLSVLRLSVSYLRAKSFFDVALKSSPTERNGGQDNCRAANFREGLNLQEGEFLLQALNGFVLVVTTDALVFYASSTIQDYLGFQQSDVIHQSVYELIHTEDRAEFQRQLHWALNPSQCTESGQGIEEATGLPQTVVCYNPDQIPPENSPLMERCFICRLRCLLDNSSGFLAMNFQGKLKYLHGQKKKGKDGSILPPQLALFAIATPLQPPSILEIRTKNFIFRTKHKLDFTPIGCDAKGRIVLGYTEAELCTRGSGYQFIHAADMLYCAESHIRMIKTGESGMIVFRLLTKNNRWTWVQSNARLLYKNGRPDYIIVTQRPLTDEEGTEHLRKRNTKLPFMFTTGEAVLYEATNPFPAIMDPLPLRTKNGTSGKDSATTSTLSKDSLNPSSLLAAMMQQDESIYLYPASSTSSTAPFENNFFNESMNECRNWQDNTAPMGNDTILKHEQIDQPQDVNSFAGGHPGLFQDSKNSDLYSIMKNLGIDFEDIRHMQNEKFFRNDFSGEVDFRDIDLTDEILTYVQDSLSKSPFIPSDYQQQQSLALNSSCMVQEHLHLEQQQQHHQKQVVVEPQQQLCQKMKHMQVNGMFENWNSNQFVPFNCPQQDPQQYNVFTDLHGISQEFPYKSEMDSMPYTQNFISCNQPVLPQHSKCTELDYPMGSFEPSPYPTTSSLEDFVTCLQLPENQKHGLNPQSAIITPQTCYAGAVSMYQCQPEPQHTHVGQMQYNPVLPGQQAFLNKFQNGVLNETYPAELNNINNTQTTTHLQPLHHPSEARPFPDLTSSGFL
The experiment in a line: DRE-luciferase transcriptional reporter assay in HEPG2 DRE-Luc cells, TCDD-induced (antagonist mode). To be noted: relative IC50, 3 nM TCDD, 24-hour incubation, firefly luciferase readout. The experiment is classed as cell-based. The method, then:
HEPG2 and HEPA1C1C7 cells were maintained in MEM and αMEM without nucleosides supplemented with 10% heat inactivated FBS respectively. Stably integrated DRE-luciferase cell lines were generated by transducing the both cell lines with Cignal XRE luciferase reporter (Qiagen) lentiviral particles according to the manufacturer protocol. For both cell lines stably integrated reporter cell lines were selected for the presence of 2 μg/mL puromycin. Following selection of stably integrated cell line pools, clonal cell lines were isolated by limiting dilution in 96-well plates. Transcriptional assays were performed by seeding 100 μL of cells at a density of 250,000 or 100,000 cells/mL, for HEPG2 and HEPA1C1C7 DRE-Luc cells respectively, into 96-well cell culture plates in OptiMEM supplemented with 0.5% heat inactivated FBS and allowed to attach overnight. For modulator assays, the compounds were added in a semi-log dose response using a D300e Digital Dispenser (Tecan) followed normalization with vehicle (DMSO). Immediately following compound addition 10 μL of 2,3,7,8-Tetrachlorodibenzo-p-dioxin (TCDD) was added to the cells to a final concentration of 3 nM or 0.3 nM for the HEPG2 and HEPA1C1C7 DRE-Luc cells respectively. Following 24-hour incubation, the medium was removed and the cells were lysed in 25 μL of Reporter Lysis Buffer (Promega). Firefly luciferase activity was measured immediately following the addition of 50 μL Luciferase Assay Reagent (Promega). The percent maximal activity for each point was determined using the following equation: (RLUsample−RLUvehicle−TCDD)/(RLUvehicle+TCDD RLUvehicle−TCDD)*100. The relative IC50, defined as the compound concentration required to reduce the TCDD induced response between the top and bottom plateau of each individual dose response curve by half, for each compound was determined using Prism 7 (GraphPad Software).

`Cc1cc(-c2ncc3cc(C(F)(F)F)ccc3n2)ccc1N1CCn2nc(N)c(C)c2C1=O` [Example 113, 2-amino-3-methyl-5-(2-methyl-4-(6-(trifluoromethyl)quinazolin-2-yl)phenyl)-6,7-dihydropyrazolo[1,5-a]pyrazin-4 (5H)-one]: the IC50 is below 200 nM.

In the case of `Cc1cc(-c2ncc3cc(C(F)(F)F)ccc3n2)ccc1N1CC(CO)n2ncc(C)c2C1=O` (stereo not shown) [Example 114, 7-(hydroxymethyl)-3-methyl-5-(2-methyl-4-(6-(trifluoromethyl)quinazolin-2-yl)phenyl)-6,7-dihydropyrazolo[1,5-a]pyrazin-4 (5H)-one], the concentration for half-maximal inhibition (IC50) was below 200 nM.

Compound `Cc1cc(-c2ncc3nc(C(F)(F)F)ccc3n2)ccc1N1CCOc2cnn(C)c2C1=O` [compound 001, 1-methyl-7-(2-methyl-4-(6-(trifluoromethyl)pyrido[3,2-d]pyrimidin-2-yl)phenyl)-6,7-dihydro-1H-pyrazolo[3,4-f][1,4]oxazepin-8 (5H)-one] showed a half-inhibitory concentration (IC50) below 200 nM.

Regarding `Cc1cc(-c2ncc3cc(C(F)(F)F)ccc3n2)ccc1N1CCn2ncc(C)c2C1=O` [compound 002, 3-methyl-5-(2-methyl-4-(6-(trifluoromethyl)quinazolin-2-yl)phenyl)-6,7-dihydropyrazolo[1,5-a]pyrazin-4 (5H)-one], the IC50 was below 200 nM.

For `Cc1cc(N2CCn3ncc(C)c3C2=O)c(C)cc1-c1ncc2cc(C(F)(F)F)ccc2n1` [compound 003, 5-(2,5-dimethyl-4-(6-(trifluoromethyl)quinazolin-2-yl)phenyl)-3-methyl-6,7-dihydropyrazolo[1,5-a]pyrazin-4 (5H)-one], the concentration for half-maximal inhibition (IC50) is 200 to 500 nM.

With `Cc1cc(-c2ncc3nc(C(F)(F)F)ccc3n2)ccc1N1CCc2cnn(C)c2C1=O` [compound 004, 1-methyl-6-(2-methyl-4-(6-(trifluoromethyl)pyrido[3,2-d]pyrimidin-2-yl)phenyl)-1,4,5,6-tetrahydro-7H-pyrazolo[3,4-c]pyridin-7-one], the 50% inhibitory concentration (IC50) is below 200 nM.

In turn, `Cc1cc(N2CCOc3cnn(C)c3C2=O)c(C)cc1-c1ccc2nc(C(F)(F)F)cc(C)c2n1` [compound 005, 7-(2,5-dimethyl-4-(8-methyl-6-(trifluoromethyl)-1,5-naphthyridin-2-yl)phenyl)-1-methyl-6,7-dihydro-1H-pyrazolo[3,4-f][1,4]oxazepin-8 (5H)-one] gave a half-inhibitory concentration (IC50) below 200 nM.

With `Cc1cc(-c2ccc3nc(C(F)(F)F)ccc3n2)ccc1N1CCn2ncc(C)c2C1=O` [compound 006, 3-methyl-5-(2-methyl-4-(6-(trifluoromethyl)-1,5-naphthyridin-2-yl)phenyl)-6,7-dihydropyrazolo[1,5-a]pyrazin-4 (5H)-one], the IC50 was below 200 nM.

With `Cc1cc(N2CCn3ncc(C)c3C2=O)c(F)cc1-c1ccc2nc(C(F)(F)F)ccc2n1` [compound 007, 5-(2-fluoro-5-methyl-4-(6-(trifluoromethyl)-1,5-naphthyridin-2-yl)phenyl)-3-methyl-6,7-dihydropyrazolo[1,5-a]pyrazin-4 (5H)-one], the IC50 is below 200 nM.

As for `Cc1cc(-c2ccc3cc(C(F)(F)F)ccc3n2)ccc1N1CCn2ncc(C)c2C1=O` [compound 008, 3-methyl-5-(2-methyl-4-(6-(trifluoromethyl)quinolin-2-yl)phenyl)-6,7-dihydropyrazolo-[1,5-a]pyrazin-4 (5H)-one], the IC50 was below 200 nM.

Consider `Cc1cc(-c2ncc3cc(C(F)(F)F)cc(C)c3n2)ccc1N1CCn2ncc(C)c2C1=O` [compound 009, 3-methyl-5-(2-methyl-4-(8-methyl-6-(trifluoromethyl)quinazolin-2-yl)phenyl)-6,7-dihydropyrazolo[1,5-a]pyrazin-4 (5H)-one], for which the IC50 is below 200 nM.

In the case of `Cc1cc(N2CCc3cnn(C)c3C2=O)c(C)cc1-c1ccc2nc(C(F)(F)F)ccc2n1` [compound 010, 6-(2,5-dimethyl-4-(6-(trifluoromethyl)-1,5-naphthyridin-2-yl)phenyl)-1-methyl-1,4,5,6-tetrahydro-7H-pyrazolo[3,4-c]pyridin-7-one], the IC50 is 1000 to 10000 nM.

`Cc1cc(N2CCc3cnn(C)c3C2=O)c(F)cc1-c1ccc2nc(C(F)(F)F)ccc2n1` [compound 011, 6-(2-fluoro-5-methyl-4-(6-(trifluoromethyl)-1,5-naphthyridin-2-yl)phenyl)-1-methyl-1,4,5,6-tetrahydro-7H-pyrazolo[3,4-c]pyridin-7-one] yielded an IC50 below 200 nM.

On to `Cc1cc(N2CCOc3cnn(C)c3C2=O)c(F)cc1-c1ccc2nc(C(F)(F)F)ccc2n1` [compound 012, 7-(2-fluoro-5-methyl-4-(6-(trifluoromethyl)-1,5-naphthyridin-2-yl)phenyl)-1-methyl-6,7-dihydro-1H-pyrazolo[3,4-f][1,4]oxazepin-8 (5H)-one], for which the IC50 lay within 500 to 1000 nM.

`Cc1cnn2c1C(=O)N(c1ccc(-c3ncc4cc(C(F)(F)F)ccc4n3)cc1F)CC2` [compound 013, 5-(2-fluoro-4-(6-(trifluoromethyl)quinazolin-2-yl)phenyl)-3-methyl-6,7-dihydropyrazolo[1,5-a]pyrazin-4 (5H)-one] came in with an IC50 below 200 nM.

The compound `Cc1cc(-c2ncc3cc(C(F)(F)F)ccc3n2)ccc1N1Cc2cnn(C)c2C1=O` [compound 014, 1-methyl-5-(2-methyl-4-(6-(trifluoromethyl)quinazolin-2-yl)phenyl)-4,5-dihydropyrrolo[3,4-c]pyrazol-6 (1H)-one] registered an IC50 below 200 nM.

Compound `Cc1cc(-c2ncc3cc(C(F)(F)F)ccc3n2)ccc1N1CCc2cnn(C)c2C1=O` [compound 015, 1-methyl-6-(2-methyl-4-(6-(trifluoromethyl)quinazolin-2-yl)phenyl)-1,4,5,6-tetrahydro-7H-pyrazolo[3,4-c]pyridin-7-one] returned a concentration for half-maximal inhibition (IC50) below 200 nM.

As for `Cc1cc(-c2ncc3nc(C(F)(F)F)ccc3n2)ccc1N1CCn2ncc(C)c2C1=O` [compound 016, 3-methyl-5-(2-methyl-4-(6-(trifluoromethyl)pyrido[3,2-d]pyrimidin-2-yl)phenyl)-6,7-dihydropyrazolo[1,5-a]pyrazin-4 (5H)-one], the half-inhibitory concentration (IC50) is below 200 nM.

In turn, `Cc1cc(-c2ccc3nc(C(F)(F)F)cc(C)c3n2)ccc1N1CCn2ncc(C)c2C1=O` [compound 017, 3-methyl-5-(2-methyl-4-(8-methyl-6-(trifluoromethyl)-1,5-naphthyridin-2-yl)phenyl)-6,7-dihydropyrazolo[1,5-a]pyrazin-4 (5H)-one] returned a half-inhibitory concentration (IC50) below 200 nM.

`Cc1cc(N2CCn3ncc(C)c3C2=O)c(C)cc1-c1ccc2nc(C(F)(F)F)ccc2n1` [compound 018, 5-(2,5-dimethyl-4-(6-(trifluoromethyl)-1,5-naphthyridin-2-yl)phenyl)-3-methyl-6,7-dihydropyrazolo[1,5-a]pyrazin-4 (5H)-one]: the IC50 lay within 200 to 500 nM.

As for `Cc1cc(N2CCn3ncc(C)c3C2=O)c(C)cc1-c1ncc2nc(C(F)(F)F)ccc2n1` [compound 019, 5-(2,5-dimethyl-4-(6-(trifluoromethyl)pyrido[3,2-d]pyrimidin-2-yl)phenyl)-3-methyl-6,7-dihydropyrazolo[1,5-a]pyrazin-4 (5H)-one], the IC50 is below 200 nM.

`Cc1cc(N2CCn3ncc(C)c3C2=O)c(C)cc1-c1ccc2nc(C(F)(F)F)cc(C)c2n1` [compound 020, 5-(2,5-dimethyl-4-(8-methyl-6-(trifluoromethyl)-1,5-naphthyridin-2-yl)phenyl)-3-methyl-6,7-dihydropyrazolo[1,5-a]pyrazin-4 (5H)-one]: the half-inhibitory concentration (IC50) was below 200 nM.

The term IC50 denotes the concentration needed to halve the response being measured.
